The test system of one test is rabbits. Description: Drought stress test using rabbits (first invention, Test Example 1). In kind it is in vivo, Japanese white rabbits. Particulars: 0.5 w/v % or 3 w/v % in saline, 100 μL per eye, eyelids open 3 hours; compared with Mw about 25,000; **p<0.01 Tukey; FIG. 1. On the procedure:
Each test substance was prepared by dissolving sodium chondroitin sulfate having a weight-average-molecular weight of about 25,000 (commercially available from Maruha Nichiro Corporation; over-the-counter sodium chondroitin sulfate) or sodium chondroitin sulfate having a weight-average-molecular weight of about 56,000 (commercially available from Seikagaku Corporation; Grade N-K) so that the content was 0.5 w/v % or 3 w/v %, respectively, in a saline (commercially available from Otsuka Pharmaceutical Factory, Inc.).
According to the method used by Nagano et al. (New Ophthalmology, 13(2), 267-270, 1996), rabbits divided into 5 groups (n=5) (Japanese white rabbits (commercially available from Kitayama Labes Co. Ltd.)) were subjected to general anesthesia, and then gloves with ring-shaped fingers were put on their left and right eyeballs and the eyelids were forcibly opened. […] After the cornea was removed from the ocular surface, the methylene blue dye was extracted, and the absorbance was measured using a microplate reader Multiskan GO (commercially available from Thermo Fisher Scientific) at 660 nm. Here, eye dryness caused corneal damage, and increased the amount of dye adhered to the cornea surface, and thus it could be evaluated that the higher the absorbance value, the drier the eyes were.

The test system of test [1] is human corneal epithelial cell line HCE-T cells. Description: Cell dry test (first invention, Test Example 13). In kind it is cell-based. Conditions: 8, 13, 14 vs test solution 4; 11, 12 vs test solution 5; 1% vs 0.5%. As for the experimental part:
Ophthalmic compositions were prepared according to a general method using the formulations shown in Table 12 and used as test solutions. The units of the components in Table 12 are w/v % unless specified in the table. 100 μL of human corneal epithelial cell line HCE-T cells at a concentration of 1×10^5 cells/mL was seeded in each well in a 96-well plate (commercially available from Corning Inc.), and cultured in a CO2 incubator set at 37° C., a humidity of 90%, and a concentration of 5% CO2 until the cells became confluent. […] After each ophthalmic composition was removed by suction from each well, drought stress was applied by leaving it in a clean bench for 20 minutes, and the number of viable cells was then evaluated. In order to evaluate the number of viable cells, 10 μL of a cell number measurement reagent (Cell counting kit-8, commercially available from Dojindo Molecular Technologies, Inc.) per 100 μL of the medium was put into each well, and culturing was performed under conditions of 37° C., 5% CO2, and a humidity of 90% for 2 to 3 hours, and measurement was then performed using an absorbance meter (commercially available from MOLECULAR DEVICES) at 450 nm. Here, the higher the value of the absorbance, the greater the number of viable cells.

Take sodium chondroitin sulfate: the “absorbance at 660 nm of methylene blue dye extracted from the cornea (corneal damage caused by eye dryness), in words” value in the test with rabbits is reported as “significantly lower absorbance”. In test [1], the “number of viable cells after drought stress, comparison in words” value is reported as “the number of viable cells significantly increased at 1%”.

Values taken from patent US20250228887A1, “OPHTHALMIC COMPOSITION” (ROHTO PHARMACEUTICAL CO., LTD., priority 2021, published 2025).
